Measurements taken from ChEMBL document CHEMBL1201862, “PubChem BioAssay data set” (2004).
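Compound exposure: 48 hours, 5 concentrations, 96-well plates. At the GI50, growth is halved.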 Activity calls are given as the source filed them. Rule as the data show it: active = GI50 up to about 1.1 µM and inactive = higher.

Key:
Test in all cases: NCI-60 cell line screen, 48 h
OVCAR-8 = tested on: OVCAR-8
NCI-H460 = tested on: NCI-H460
OVCAR-3 = tested on: OVCAR-3
SF-539 = tested on: SF-539
SN12C = tested on: SN12C
SK-MEL-28 = tested on: SK-MEL-28
PC-3 = tested on: PC-3
SNB-75 = tested on: SNB-75
SF-268 = tested on: SF-268
SK-MEL-2 = tested on: SK-MEL-2
T47D = tested on: T47D
SK-MEL-5 = tested on: SK-MEL-5
NCI-H522 = tested on: NCI-H522
HCT-15 = tested on: HCT-15
Hs-578T = tested on: Hs-578T
EKVX = tested on: EKVX
MDA-MB-231 = tested on: MDA-MB-231
HCC 2998 = tested on: HCC 2998
UACC-62 = tested on: UACC-62
UO-31 = tested on: UO-31

SMILES | GI50 (OVCAR-8) | GI50 (NCI-H460) | GI50 (OVCAR-3) | GI50 (SF-539) | GI50 (SN12C) | GI50 (SK-MEL-28) | GI50 (PC-3) | GI50 (SNB-75) | GI50 (SF-268) | GI50 (SK-MEL-2) | GI50 (T47D) | GI50 (SK-MEL-5) | GI50 (NCI-H522) | GI50 (HCT-15) [µM] | GI50 (Hs-578T) | GI50 (EKVX) | GI50 (MDA-MB-231) | GI50 (HCC 2998) | GI50 (UACC-62) | GI50 (UO-31)
O=C(O)c1[nH]c2c([N+](=O)[O-])cc([N+](=O)[O-])cc2c1C(=O)O | > 100 µM (inactive) | > 100 µM (inactive) | > 100 µM (inactive) | > 100 µM (inactive) | > 100 µM (inactive) | > 100 µM (inactive) | > 100 µM (inactive) | > 100 µM (inactive) | > 100 µM (inactive) | > 100 µM (inactive) | > 100 µM (inactive) | > 100 µM (inactive) | 78.9 µM (inactive) | > 100 | > 100 µM (inactive) | > 100 µM (inactive) | > 100 µM (inactive) | > 100 µM (inactive) | > 100 µM (inactive) | > 100 µM (inactive)
C/C(=N\N=C(/S)N(C)C)c1cccc[n+]1[O-] | 23.7 µM (inactive) | 33.6 µM (inactive) | 5.12 µM (inactive) | 47.4 µM (inactive) | 79.1 µM (inactive) | 73.5 µM (inactive) | 15.4 µM (inactive) | 93.1 µM (inactive) | 38.2 µM (inactive) | 38.5 µM (inactive) | 0.413 µM (active) | 27.7 µM (inactive) | 4.05 µM (inactive) | 1.45 | 92.9 µM (inactive) | 25.9 µM (inactive) | 2.99 µM (inactive) | 19.9 µM (inactive) | 16.1 µM (inactive) | 23.2 µM (inactive)
CN(/N=C(\C(=O)O)c1ccccc1)C1=NCCCCN1 | > 100 µM (inactive) | > 100 µM (inactive) | > 100 µM (inactive) | > 100 µM (inactive) | > 100 µM (inactive) | > 100 µM (inactive) | > 100 µM (inactive) | > 100 µM (inactive) | > 100 µM (inactive) | > 100 µM (inactive) | > 100 µM (inactive) | > 100 µM (inactive) | > 100 µM (inactive) | > 100 | > 100 µM (inactive) | > 100 µM (inactive) | > 100 µM (inactive) | > 100 µM (inactive) | > 100 µM (inactive) | > 100 µM (inactive)
O=C1OC(c2ccc(O)c(-c3ccccc3)c2)(c2ccc(O)c(-c3ccccc3)c2)c2c(Cl)c(Cl)c(Cl)c(Cl)c21 | > 100 µM (inactive) | > 100 µM (inactive) | > 100 µM (inactive) | > 100 µM (inactive) | > 100 µM (inactive) | > 100 µM (inactive) | > 100 µM (inactive) | > 100 µM (inactive) | > 100 µM (inactive) | > 100 µM (inactive) | > 100 µM (inactive) | > 100 µM (inactive) | > 100 µM (inactive) | > 100 | > 100 µM (inactive) | > 100 µM (inactive) | > 100 µM (inactive) | > 100 µM (inactive) | > 100 µM (inactive) | > 100 µM (inactive)
CC[C@@H](/C=C\CCC1(C[C@@H](N)CCC=C(C)C)OCCO1)O[Si](C(C)C)(C(C)C)C(C)C | 11.9 µM (inactive) | 18.4 µM (inactive) | 18.7 µM (inactive) | 17.7 µM (inactive) | 17.3 µM (inactive) | 18 µM (inactive) | 16.1 µM (inactive) | 18.9 µM (inactive) | 19.1 µM (inactive) | 17.3 µM (inactive) | 23.2 µM (inactive) | 18.1 µM (inactive) | 20 µM (inactive) | 18.9 | 26 µM (inactive) | 15.6 µM (inactive) | 19 µM (inactive) | 13 µM (inactive) | 17.8 µM (inactive) | 17.6 µM (inactive)
CCOC(=O)c1ccc(NC(=O)O/N=C(/Cl)C(C)C)cc1 | 13.9 µM (inactive) | 19.6 µM (inactive) | 5.28 µM (inactive) | 18.6 µM (inactive) | 19.9 µM (inactive) | 16.2 µM (inactive) | 20.4 µM (inactive) | 12.9 µM (inactive) | 16.5 µM (inactive) | 15.1 µM (inactive) | 2.75 µM (inactive) | 16.1 µM (inactive) | 2.07 µM (inactive) | 8.59 | 29.5 µM (inactive) | 14.9 µM (inactive) | 19.5 µM (inactive) | 16.6 µM (inactive) | 18.9 µM (inactive) | 17.8 µM (inactive)
Cc1nc(N)c(N2CCNCC2)c(O)n1 | > 100 µM (inactive) | > 100 µM (inactive) | 76.7 µM (inactive) | > 100 µM (inactive) | > 100 µM (inactive) | > 100 µM (inactive) | > 100 µM (inactive) | > 100 µM (inactive) | > 100 µM (inactive) | > 100 µM (inactive) | > 100 µM (inactive) |  | > 100 µM (inactive) | > 100 | > 100 µM (inactive) | > 100 µM (inactive) | > 100 µM (inactive) | > 100 µM (inactive) |  | > 100 µM (inactive)
